Blank lines part the entries; values can stand above or below the compound they belong to.
Test system: keratinocyte transglutaminase (TGk)
Test: Assaying of keratinocyte transglutaminase (TGk) activity in mitomycin-pretreated NHEKs in deficient medium (radiochemical assay)
Format: cell-based, human
Design: key to Significant variation relative to the control: NS = not significant
Details: for % Activity relative to the control / Significant variation relative to the control: TGk activity, medium with mitomycin, depleted medium, 96 hours
Description: For this, normal human epidermal keratinocytes (NHEKs), pretreated with mitomycin so as to prevent proliferation thereof, in a deficient medium made up of 40% of depleted SFM medium and 60% of Earle's balanced salt solution (EBSS) buffer were placed in culture. The metabolism of these cells having been thus slowed down, their ability to differentiate is then quantified by assaying, using a standard radiochemical assay, the keratinocyte transglutaminase activity (TGk) of the NHEKs pretreated with the active agents. […] Normal human keratinocytes were cultured at 37° C. and 5% CO2 for 24 h in complete SFM medium. The cell divisions were then blocked by treatment with mitomycin C (10 μg/ml) for 2 hours at 37° C. and 5% CO2. The cells were then incubated for 96 hours in deficient or nondeficient (control) medium containing or not containing various concentrations of the test or reference products. […] The treatments were carried out in triplicate (n=3). At the end of the incubation, the TGk membrane enzyme was extracted in the presence of Triton X-100 and the TGk activity was determined by measuring the covalent addition of tritiated putrescine, at a final concentration of 2 μCi/ml, to caseine (acceptor protein, 2 mg/ml final concentration). The caseine was precipitated by addition of trichloroacetic acid (TCA) and the precipitates were recovered on filters and a collector and then the dry filters were counted by liquid scintillation.

% Activity relative to the control (0.06%): 128%
Significant variation relative to the control (0.06%): NS
effect on the TGk activity (tested at 0.06%): no significant effect
Compound: CC(O)C[C@@H]1OC[C@@H](O)[C@H](O)[C@H]1O (stereo partly drawn) [C-β-D-xylopyranoside-2-hydroxypropane]

% Activity relative to the control (0.02%): 88%
Significant variation relative to the control (0.02%): NS
effect on the keratinocyte transglutaminase activity (tested alone at 0.02%): no effect
Compound: Hyaluronic acid

Compound: [Ca+2].[Cl-].[Cl-] [CaCl2, Calcium chloride, reference compound]
effect on the TGk activity of the keratinocytes (1.5 mM): clearly increased the TGk activity
% Activity relative to the control (1.5 mM): 557%
Significant variation relative to the control (1.5 mM): +457%

Compound: CC(O)CO (stereo not drawn) [1,2-propanediol]
% Activity relative to the control (0.16%): 87%
Significant variation relative to the control (0.16%): NS
effect on the TGk activity (tested at 0.8%): did not modify the activity

Source: US20090075935A1, “COMPOSITION COMPRISING AT LEAST ONE C-GLYCOSIDE DERIVATIVE AND AT LEAST ONE HYALURONIC ACID AND ITS COSMETIC USE” (L'OREAL, priority 2006, published 2009)
